For 79 compounds, RP-LC retention time results are on record in the METLIN SMRT retention time set (Domingo-Almenara et al. 2019).

A short description of this data set: gradient 5% acetonitrile 3 min, to 50% in 2 min, to 85% in 15 min, held 3 min, 100 µL/min. To be noted: column: Zorbax Extend-C18 2.1 x 50 mm; eluents: water / acetonitrile, 0.1% formic acid. An outline of the steps: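 Using water and acetonitrile that each contained 0.1% formic acid, mixtures of ~100 pure standards were separated at 100 μL/min on a Zorbax Extend-C18 column (2.1 × 50 mm, 1.8 μm). The HPLC fed a quadrupole time-of-flight mass spectrometer working in positive and negative ionization mode, with dead and dwell volumes of 40 μL and 900 μL. Data were acquired over 3 months. Retention time was read from computationally picked adduct peaks after manual inspection of each.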
For the compound `Cc1ccc2c(c1)C(=O)C1(O)CCN(c3ccccc3)C1=N2` (centres undefined), the RP-LC retention time came out at 646 s.

`COc1ccc(Cl)cc1NC(=O)Nc1ccc2c(c1)N(C)C(=O)C(C)(C)CO2` came in with an RP-LC retention time of 981 s.

As to `O=C(NC1CCN(c2cc(-c3ccc(F)cc3)[nH]n2)C1)c1ccc2cc[nH]c2c1` (centres undefined), the RP-LC retention time is 714 s.

In turn, `CCn1c(CCNC(=O)c2cccc(F)c2)nc2cccnc21` showed an RP-LC retention time of 616 s.

`Cc1noc(COC2CCCN(C(=O)c3ccc4cc[nH]c4c3)C2)n1` (centres undefined) gave an RP-LC retention time of 570 s.

As to `COc1cccc(CNC(=O)Nc2cc3c(cc2N2CCCC2)n(C)c(=O)n3C)c1`, the RP-LC retention time was 600 s.

Regarding `O=C1c2ccccc2-c2onc3c(N4CCN(c5ccccn5)CC4)cc(N4CCCCC4)c1c23`, the RP-LC retention time is 600 s.

`O=C(NC1CCCC1)N1CCN(c2nc3cccnc3n(Cc3ccccc3)c2=O)CC1`: the RP-LC retention time was found to be 1030 s.

Regarding `O=C1C(O)C2(CCCCC2)N1C1CCN(Cc2ccc(F)c(F)c2)CC1` (centres undefined), the RP-LC retention time was 548 s.

Take `Cc1cc(C)c2c(n1)SCC(=O)N2CC(=O)NCCN(C)C1CCCCC1`: the RP-LC retention time amounted to 585 s.

In turn, `FC(F)(F)c1cccc(-c2noc(Cc3nnc(-c4ccccc4)o3)n2)c1` displayed an RP-LC retention time of 1080 s.

`CC(c1ccccc1)N1CC(=O)N(c2cccc(Cl)c2)[C@@H]2CS(=O)(=O)C[C@@H]21` (some centres undefined): the RP-LC retention time amounted to 894 s.

The compound `Cc1ccc(-n2ccnc(NC(=O)Nc3ccc(F)cc3)c2=O)cc1C` yielded an RP-LC retention time of 1030 s.

For the compound `CCc1nc(-c2csc(S(=O)(=O)N3CCCC(C(=O)NCc4ccc(C)cc4)C3)c2)no1` (centres undefined), the RP-LC retention time turned out to be 1060 s.

`CCN1CCCC1CN(CC(=O)N1CCNCC1)S(=O)(=O)c1ccc(Br)cc1` (centres undefined) returned an RP-LC retention time of 583 s.

The compound `CCc1nncn1C1CCN(S(=O)(=O)c2ccc(OC)cc2)CC1` gave an RP-LC retention time of 668 s.

Consider `O=C(c1cn(-c2ccc(-c3nc(C4CC4)no3)cn2)cn1)N1CCCCCC1`, for which the RP-LC retention time is 928 s.

In turn, `O=C(c1ccccc1)N1CCCc2cc(NS(=O)(=O)c3ccccc3Cl)ccc21` returned an RP-LC retention time of 816 s.

As to `CCOC(=O)c1cnc2nc(C)ccc2c1Nc1cc(OC)c(OC)c(OC)c1`, the RP-LC retention time came out at 671 s.

For the compound `CC(C)Oc1ccc(CN2CC(N(Cc3ccncc3)S(C)(=O)=O)C2)cc1`, the RP-LC retention time came out at 571 s.

As for `Cc1ccc(S(=O)(=O)N2C[C@@H](F)C[C@H]2C(=O)N2CCCCC2)cc1C`, the RP-LC retention time was 823 s.

Turning to `O=C(NCCCS(=O)(=O)N1CCN(c2ncccn2)CC1)C1CC1`, the RP-LC retention time worked out at 608 s.

On to `COc1ccc(N2CCN(C(=O)C3CC(=O)N(c4ccc5oc(C)nc5c4)C3)CC2)cc1` (centres undefined), for which the RP-LC retention time was determined as 678 s.

Compound `Cc1nc(-c2nnn(Cc3ccccc3)c2C)no1` came in with an RP-LC retention time of 836 s.

Regarding `CC1CCN(S(=O)(=O)c2ccc3c(ccn3CC(=O)NCC(C)c3ccccc3)c2)CC1` (centres undefined), the RP-LC retention time worked out at 1070 s.

`O=S(=O)(c1ccc(-c2nnc(C3CC3)o2)o1)N1CCCCC1` came in with an RP-LC retention time of 853 s.

`CCCn1ccc2oc(C)c(C(=O)NCc3ccccc3Br)c2c1=O` returned an RP-LC retention time of 1110 s.

`COc1ccc(CNC(=O)Cn2c(N)nc(C)cc2=O)cc1` came in with an RP-LC retention time of 603 s.

`CCCC(=O)N1CCc2c([nH]c3ccccc23)C1c1ccc(C)cc1` (centres undefined): the RP-LC retention time was found to be 1150 s.

In turn, `O=C1C(=O)N(Cc2ccc(C(=O)N3CCCC3)cc2)CCN1Cc1ccc(F)cc1` showed an RP-LC retention time of 702 s.

The compound `COc1ccc(NC(=O)Cn2nc3nc(N4CCCC(C)C4)ccn3c2=O)cc1` (centres undefined) had an RP-LC retention time of 734 s.

In the case of `CCOc1coc(C(=O)NCc2ccccc2OC)cc1=O`, the RP-LC retention time came out at 644 s.

Compound `Cn1ccc(CN2CCC(Cc3ccccc3)CC2)cc1=O` registered an RP-LC retention time of 611 s.

As for `O=C(NCc1ccc(F)cc1)c1c(O)c2cccnc2n(-c2cccc(F)c2)c1=O`, the RP-LC retention time turned out to be 1140 s.

For `Cc1ccc(NC(=O)C2CCN(C(=O)C3Sc4ccccc4NC3=O)CC2)cc1` (centres undefined), the RP-LC retention time was 749 s.

As to `CCN1C(=O)COc2cc(-c3noc(C(=O)NCC4CCCO4)n3)ccc21` (centres undefined), the RP-LC retention time is 783 s.

As for `CO[C@H]1CN(C(C)C)[C@H]1C1CCN(C(=O)C2CCC2)CC1`, the RP-LC retention time came out at 574 s.

`COc1cc(OC)cc(C(=O)Nc2nc(-c3ccc4c(c3)NC(=O)C(C)O4)cs2)c1` (centres undefined) showed an RP-LC retention time of 940 s.

`COc1ccc(C2(C(=O)N3CC(F)(F)C[C@H]3CN3CCN(C)CC3)CC2)cc1` had an RP-LC retention time of 641 s.

`Cn1c(=O)sc2cc(S(=O)(=O)N3CCC(C(=O)N4CCc5ccccc54)CC3)ccc21`: the RP-LC retention time is 933 s.

Turning to `Cc1ccc(C)c(C(=O)NCCc2nc3cccnc3n2C(C)C)c1`, the RP-LC retention time came out at 705 s.

Regarding `CCc1ccc(S(=O)(=O)N2CCC(c3cc(N)on3)CC2)cc1`, the RP-LC retention time amounted to 813 s.

`CSc1ccc(-c2nc3ccc(Cl)cn3c2Nc2ccc3c(c2)OCCO3)cc1` registered an RP-LC retention time of 819 s.

`CCc1c(C)nc2nc(-c3ccccc3)nn2c1Nc1cc(OC)ccc1OC`: the RP-LC retention time was determined as 972 s.

For `COc1ccc2[nH]c(=O)c(CCC(=O)NCc3ccncc3)cc2c1`, the RP-LC retention time stood at 574 s.

In turn, `COc1ccc(-c2cc(N3CCC(NC(=O)c4ccc(OC)cc4OC)C3)n[nH]2)cc1` (centres undefined) gave an RP-LC retention time of 705 s.

Consider `Cc1ccc(CCC(=O)Nc2nc(-c3ccc4c(c3)NC(=O)C(C)O4)c(C)s2)cc1` (centres undefined), for which the RP-LC retention time worked out at 1010 s.

In turn, `CCOc1ccc(OCC)c(N2C=C(C#N)S(=O)(=O)c3c(F)cccc32)c1` came in with an RP-LC retention time of 923 s.

`CCN1c2ccccc2C(=O)NC12CCN(C(=O)NCCc1ccccc1)CC2` registered an RP-LC retention time of 773 s.

`N#CCc1ccc(NC(=O)C2CCCN(S(=O)(=O)Cc3ccc(Cl)cc3)C2)cc1` (centres undefined) displayed an RP-LC retention time of 905 s.

Consider `C=Cc1ccc(CN2CCCN(c3ncccc3-c3nc(C(C)C)no3)CC2)cc1`, for which the RP-LC retention time was determined as 785 s.

Turning to `CC1CCN(S(=O)(=O)c2ccc(-c3nnc(C(=O)NCCN4CCOCC4)o3)cc2)CC1`, the RP-LC retention time turned out to be 674 s.

Compound `O=C(NCCC1=CCCCC1)C1CCN(C(=O)c2ncn3c2COC(c2ccccc2)C3)CC1` (centres undefined) registered an RP-LC retention time of 820 s.

For the compound `CC(C)c1noc(-c2cc(=O)n(CC(=O)Nc3ccc(F)c(F)c3)c3ccccc23)n1`, the RP-LC retention time was 1040 s.

`O=C1CCCc2cc(S(=O)(=O)N3CCCC3C(=O)N3CCN(c4ccccc4)CC3)ccc2N1` (centres undefined) had an RP-LC retention time of 750 s.

`O=C(O)CCC1CCCN(S(=O)(=O)c2ccccc2)C1` (centres undefined) showed an RP-LC retention time of 770 s.

`Cc1nc(-c2cc(S(=O)(=O)N(Cc3ccccc3)C(C)C)c(C)s2)sc1C` came in with an RP-LC retention time of 978 s.

Consider `Cc1ccc(S(=O)(=O)N2CCCC2c2nc(-c3ccccc3C)no2)cc1Cl` (centres undefined), for which the RP-LC retention time was 1290 s.

`CC(C)Sc1ccc(CC(=O)N2CC(c3nc(-c4ncccn4)no3)C2)cc1` displayed an RP-LC retention time of 732 s.

For `COC(=O)c1sccc1NC(=O)C1CCN(Cc2nc(-c3ccc(OC)c(OC)c3)no2)CC1`, the RP-LC retention time was determined as 747 s.

Turning to `O=C(NS(=O)(=O)c1ccc(F)cc1)c1ccccc1`, the RP-LC retention time was 744 s.

Take `CN(C)C(=O)CSc1nnc(-c2ccc3c(c2)OCCCO3)n1C1CC1`: the RP-LC retention time turned out to be 676 s.

`CCC1=C[C@@H]2CN3CCc4c([nH]c5ccccc45)[C@@](C(=O)OC)(C2)[C@@H]13` came in with an RP-LC retention time of 728 s.

`C=CCNC(=O)C1CCN(C(=O)Nc2ccc(NC(=O)Nc3ccc(C)cc3C)cc2)CC1` registered an RP-LC retention time of 728 s.

`COc1cccc(-c2noc(Cc3nnc(-c4ccc(C)c(F)c4)o3)n2)c1OC`: the RP-LC retention time was found to be 1010 s.

`O=C(NCc1ccc(Br)cc1)c1cn2nc(Cl)ccc2n1` returned an RP-LC retention time of 882 s.

For `O=C(NCCn1ncccc1=O)Nc1ccc(OC(F)(F)F)cc1`, the RP-LC retention time worked out at 674 s.

Regarding `Cc1cc(C)cc(NC(=O)N(C)Cc2nc3cc(C(=O)N(C)C)ccc3n2C)c1`, the RP-LC retention time is 639 s.

As for `O=C(Cn1nc2n(c1=O)CCCC2)Nc1ccc2c(c1)OCO2`, the RP-LC retention time stood at 638 s.

`CCOC(=O)c1[nH]c(C)c(C(=O)C(C)N(CC)C(=O)c2ccc(OC)cc2)c1C` (centres undefined) displayed an RP-LC retention time of 795 s.

The compound `CC(C)OCCCNC(=O)c1cc2n(n1)CCCN(Cc1ccc(Cl)cc1)C2=O` gave an RP-LC retention time of 855 s.

`CN(C)C(=O)c1ccc2c(c1)N(CC(=O)NCCc1c[nH]c3ccccc13)C(=O)C1CCCCN21` (centres undefined): the RP-LC retention time worked out at 781 s.

Compound `Cn1ccnc1C(=O)N1CC(n2cc(COc3ccc(F)cc3)nn2)C1` yielded an RP-LC retention time of 715 s.

`O=S(=O)(c1ccc(F)c(Cl)c1)N1CCc2nc(-c3ccccc3)ncc2C1` had an RP-LC retention time of 1130 s.

`Cc1nnc(-c2cc(NC(=O)c3ccc(C(F)(F)F)cc3)c(C)s2)o1` returned an RP-LC retention time of 986 s.

With `CC(=O)NCC(=O)N1CCCn2cc(-c3ccccc3F)nc21`, the RP-LC retention time was 580 s.

Regarding `Cc1ccc2oc(C(=O)NCCc3cccs3)cc2n1`, the RP-LC retention time is 640 s.

In the case of `CCN(CC)S(=O)(=O)c1ccc(C)c(-c2nnc(-c3ccc(F)cc3)o2)c1`, the RP-LC retention time stood at 1100 s.

For `OCC1OC(n2cnc3c(SCc4ccccc4)ncnc32)C(O)C1O` (centres undefined), the RP-LC retention time was 663 s.
